# Assay results as given in ChEMBL document CHEMBL3044721, “Homology modeling of human CCR2 receptor” (Med Chem Res, 2011).
# Target: C-C chemokine receptor type 2 (Homo sapiens, UniProt P41597)
# Experiment: Antagonist activity at Homo sapiens (human) CCR2 receptor
# C-C chemokine receptor type 2, sequence (P41597 whole entry): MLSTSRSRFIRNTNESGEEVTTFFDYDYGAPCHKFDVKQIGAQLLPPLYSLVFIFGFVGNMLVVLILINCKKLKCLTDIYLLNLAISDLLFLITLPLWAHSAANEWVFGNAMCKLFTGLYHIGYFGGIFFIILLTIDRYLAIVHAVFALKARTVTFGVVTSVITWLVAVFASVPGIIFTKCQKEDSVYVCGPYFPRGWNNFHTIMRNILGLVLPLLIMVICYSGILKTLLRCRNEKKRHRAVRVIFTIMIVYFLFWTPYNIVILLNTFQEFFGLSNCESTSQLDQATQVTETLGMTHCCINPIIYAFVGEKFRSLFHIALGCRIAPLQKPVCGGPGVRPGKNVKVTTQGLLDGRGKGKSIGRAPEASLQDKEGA
row,IC50 [nM],SMILES
1,39,O=C(NCc1cc(C(F)(F)F)cc(C(F)(F)F)c1)[C@H](NCCN1CCCCC1)c1ccsc1
2,5,CO[C@@H]1COCC[C@@H]1N[C@@H]1CC[C@](C(=O)N2CCc3ncc(C(F)(F)F)cc3C2)(C(C)C)C1
